Results published in patent publication US5156962A, “Process for producing carboxylic acid esters using carboxyesterase and an anhydride in organic solvent” (Takeda Chemical Industries, Ltd., priority 1986, dated 1992).

Legend:
[1] = Solubility of the crystals in solvents; assay type: physicochemical
[2] = system: PEG-modified esterase (carboxyl esterase); assay: Acetylation of lankacidin C to lankacidin A by PEG-modified esterase with different acetyl group donors (Lineweaver-Burk analysis); assay type: biochemical, Streptomyces rochei var. volubilis; conditions: acetyl group donor as substrate, 11 mM lankacidin C in methyl isobutyl ketone, 37° C., least-squares method from Table 2; for Vmax: lankacidin A formed
Experimental: 2 ml of a solution of 11 mM concentrations of lankacidin C and 50 mM concentrations of acetic anhydride in methyl isobutyl ketone was put in a 20 ml test tube with stopper, to which was added 0.3 ml of a solution of PEG-modified esterase in 0.2M tris(hydroxymethyl) aminomethane-maleic acid buffer (pH 7.0), the concentration of PEG-modified esterase of which was 12 mg per ml, followed by shaking with shaking apparatus (80 spm) at 37° C.
By high-performance liquid chromatography (hereinafter referred to briefly as HPLC method) as described below, the amount of lankacidin A formed was measured at the time shown in Table 1.
By changing the concentration of acetyl group donor to those shown of Table 2, with the reaction time being 20 min., the same procedure as in Example 1 was conducted.
By using Lineweaver-Burk's equation of the formula 2 [Biochemical Dictionary, first edition, page 1314 (1984), Tokyokagakudozin Ltd.] derived by modifying the Michaelis-Menten equation of formula 1 [Op Cit. page 1239], the reaction using acetic anhydride as an acetyl group donor was compared with that using ethyl acetate as acetyl group donor. [formula]
By putting values of the concentration of acetyl group donor shown in Table 2 in the place of [S]o, and values of the amount of lankacidin A formed shown in Table 2 in the place of .nu., values of Km and Vmax were calculated by means of the least-squares method.

Row | SMILES | Solubility in acetone ([1]; acetone) | Solubility in chloroform ([1]; chloroform) | Solubility in ethanol ([1]; ethanol) | Solubility in methanol ([1]; methanol) | Solubility in water ([1]; water) | Km ([2]; reaction time 20 min.) | Vmax [2]
1 | CCC(=O)OC1C=CC2OC2CC(C)OC(=O)CC(OC(=O)CC)C(OC)C(OC2OC(C)C(OC3CC(C)(O)C(OC(=O)CC)C(C)O3)C(N(C)C)C2O)C(CC=O)CC1C (centres unmarked) [9-propionyl maridomycin III] | readily soluble | relatively soluble | readily soluble | readily soluble | hardly soluble | – | –
2 | CC(=O)OC(C)=O [Acetic anhydride, acetic anhydride] | – | – | – | – | – | 7.69 mM | 6.59 mM/20 min.
3 | CCOC(C)=O [Ethyl acetate, ethyl acetate] | – | – | – | – | – | – | 5.40 mM/20 min.
